# Data published in US6492174B1, “Methods of initiating embryogenic cultures in plants” (Institute of Paper Science & Technology, priority 2000, dated 2002).
# What was measured:
# Assay type in all cases: cell-based
# [1] = tested on: Loblolly pine megagametophytes; experiment: 30 minute abscisic acid soaking pre-treatment, culture on solid media #1042 with or without 0.1 μM brassinolide, eight weeks
# Description: In this experiment, the effects of ovule pre-treatment by soaking with abscisic acid solutions of varying concentration was investigated. The abscisic acid treatment was tested on two media, one containing brassinolide and one lacking in brassinolide. The explants were megagametophytes from open pollinated summer cones of four individual trees, representing a multiplicity of genotypes. The seeds contained Stage 2-4 zygotic embryos. Megagametophytes were excised from sterilized seeds, as described in Example 4.
# Prior to culturing, the megagametophytes were soaked for 30 minutes in liquid growth media (media #1042, Table 47, minus the gelling agent) containing 0, 5, 10 and 20 ppm abscisic acid. After soaking, the megagametophytes were placed on either one of two solid growth media. While still liquid, 2 ml media was poured into wells on a culture well plate and allowed to solidify. Half the soaked megagametophytes were placed on solid media #1042 (Table 47) and half were placed on solid media #1042 with 0.1 μM brassinolide added.
# On solid media where brassinolide was present, there was a dramatic difference in extrusion and initiation between megagametophytes soaked in zero and 5 ppm ABA solutions (Treatments #5 and #6) compared to those soaked in 10 and 20 ppm ABA solutions (Treatments #7 and #8). […] In contrast, megagametophytes treated with higher amounts of ABA in Treatments 7 and 8 had the highest initiation frequencies of any treatment. […] Alternatively, there may have been an interaction between brassinolide and ABA such that low ABA plus brassinolide inhibits extrusion, with this inhibition overcome when ABA concentration is higher.
# [2] = tested on: Loblolly pine megagametophytes; experiment: Elevated pressure in combination with brassinolide, ABA pre-soak or liquid media #1038, 8 weeks; details: Br 0.1 μM in media #1042, ABA soak 5 ppm 30 minute
# Description: The previous examples indicate that elevated pressure can enhance extrusion and initiation. This experiment was designed to test the effect of elevated pressure in combination with other treatments to determine the optimal conditions for promoting extrusion and initiation.
# Megagametophytes in some treatments received a 30 minute pre-culturing soak in liquid media (#1042 minus the gelling agent) containing 5 ppm ABA. Megagametophytes in Treatments 9 and 10 were fully immersed in liquid media #1038. The experiment consisted of three replications per treatment, per genotype.
# Five different treatments were used, each cultured under 1.0 or 1.5 atmospheres for a total of ten treatments (See Table 33).
# After 8 weeks culturing, the treatments were scored. Extrusion and initiation were increased by elevated pressure in all treatments.
# [3] = tested on: Norway spruce zygotic embryos; experiment: Norway spruce initiation on solid media #56 with ABA, brassinolide or elevated pressure, ten weeks; details: 1 ppm ABA added to medium #56
# Description: Explants were zygotic embryos flipped out of the megagametophyte, prepared as in Example 1. The experiment consisted of five replications, with a replication consisting of ten explants in a single petri dish. Explants were cultured on solid media #56 (Table 3). Treatment #1 consisted of explants on media #56. In Treatment #2, the medium additionally contained 1 ppm ABA. In Treatment #3, the media contained […] brassinolide. In Treatment #4, the explants were cultured under 1.5 atmospheres of pressure. After ten weeks, the explants were examined and the frequency of embryogenic culture initiation was scored (Table 43).
# [4] = tested on: Douglas fir stage 3-5 zygotic embryos attached to megagametophytes; experiment: Douglas fir initiation on solid media #121 with brassinolide, ABA, ABA pre-soak or elevated pressure
# Text: The explants used in this experiment were isolated from Douglas fir cones collected in mid-summer from four open-pollinated trees, representing a multiplicity of genotypes. Explants were stage 3-5 (early-midstage) zygotic embryos attached to megagametophytes, prepared as described in Example 2. The embryo and attached megagametophyte were then placed next to each other on the treatment media. As in Example 2, each replication consisted of ten explants in a single petri dish. Each treatment contained four replications per treatment, per genotype.
# The treatment media were based on solid media #121, the composition of which is described in Table 5. Media #121 contains no ABA or brassinolide. Treatment #1, the control, consisted of explants cultured on media #121 alone. In Treatment #2, explants were cultured on media #121 containing 0.1 μM brassinolide. In Treatment #3, explants were cultured on media #121 containing 1 ppm ABA. In treatment #4, explants were soaked in liquid media containing 5 ppm ABA for 30 minutes prior to being placed on #121 media. In Treatment #5, explants were cultured on media #121 under 1.5 atmospheres of pressure. The petri dishes were wrapped in PARAFILM and incubated at 23-24° C. in the dark.
# [5] = genotype 7-1051, 5 ppm ABA/No Br
# [6] = genotype 7-1051, 10 ppm ABA/No Br
# [7] = genotype 7-1051, 20 ppm ABA/No Br
# [8] = genotype M7-56, 5 ppm ABA/No Br
# [9] = genotype M7-56, 10 ppm ABA/No Br
# [10] = genotype M7-56, 20 ppm ABA/No Br
# [11] = genotype TC5-1501, 5 ppm ABA/No Br
# [12] = genotype TC5-1501, 10 ppm ABA/No Br
# [13] = genotype TC5-1501, 20 ppm ABA/No Br
# [14] = genotype TC11-109, 5 ppm ABA/No Br
# [15] = genotype TC11-109, 10 ppm ABA/No Br
# [16] = genotype TC11-109, 20 ppm ABA/No Br
# [17] = genotype 7-100, + Pressure 1.5 atm
# [18] = genotype 11-1095, + Pressure 1.5 atm
# [19] = genotype 21-6, + Pressure 1.5 atm
smiles,measurement,setting,value
"CC1=CC(=O)CC(C)(C)C1(O)/C=C/C(C)=C\C(=O)O (stereo not shown) [ABA, 5-(1-hydroxy-2,6,6,-trimethyl-4-oxo-2-cyclohexen-1-yl)-3-methyl-2,4-penta dienoic acid]",% Megagametophytes Extruding,[1]; [5],53.3 (8.8) %
same,Embryogenic Culture Initiation - % Megagametophytes Extruding,[1]; [5],20.0 (10.0) %
same,% Megagametophytes Extruding,[1]; [6],30.0 (5.8) %
same,Embryogenic Culture Initiation - % Megagametophytes Extruding,[1]; [6],6.7 (3.3) %
same,% Megagametophytes Extruding,[1]; [7],40.0 (5.8) %
same,Embryogenic Culture Initiation - % Megagametophytes Extruding,[1]; [7],13.3 (3.3) %
same,% Megagametophytes Extruding,[1]; [8],20.0 (5.8) %
same,Embryogenic Culture Initiation - % Megagametophytes Extruding,[1]; [8],13.3 (3.3) %
same,% Megagametophytes Extruding,[1]; [9],26.7 (6.7) %
same,Embryogenic Culture Initiation - % Megagametophytes Extruding,[1]; [9],13.3 (3.3) %
same,% Megagametophytes Extruding,[1]; [10],36.7 (8.8) %
same,Embryogenic Culture Initiation - % Megagametophytes Extruding,[1]; [10],6.7 (6.7) %
same,% Megagametophytes Extruding,[1]; [11],33.3 (6.7) %
same,Embryogenic Culture Initiation - % Megagametophytes Extruding,[1]; [11],10.0 (0.0) %
same,% Megagametophytes Extruding,[1]; [12],16.7 (8.8) %
same,Embryogenic Culture Initiation - % Megagametophytes Extruding,[1]; [12],3.3 (3.3) %
same,% Megagametophytes Extruding,[1]; [13],40.0 (11.5) %
same,Embryogenic Culture Initiation - % Megagametophytes Extruding,[1]; [13],6.7 (3.3) %
same,% Megagametophytes Extruding,[1]; [14],33.3 (3.3) %
same,Embryogenic Culture Initiation - % Megagametophytes Extruding,[1]; [14],10.0 (5.8) %
same,% Megagametophytes Extruding,[1]; [15],46.7 (13.3) %
same,Embryogenic Culture Initiation - % Megagametophytes Extruding,[1]; [15],13.3 (3.3) %
same,% Megagametophytes Extruding,[1]; [16],46.7 (12.0) %
same,Embryogenic Culture Initiation - % Megagametophytes Extruding,[1]; [16],13.3 (3.3) %
same,promotion of extrusion or initiation,"[1]; soaking pretreatment, media where no brassinolide was present (Treatments #1-4)",did not promote extrusion or initiation
same,% Megagametophytes Extruding,"[1]; total, 5 ppm ABA/No Br",35.0%
same,Embryogenic Culture Initiation - % Megagametophytes Extruding,"[1]; total, 5 ppm ABA/No Br",13.3%
same,% Megagametophytes Extruding,"[1]; total, 10 ppm ABA/No Br",30.0%
same,Embryogenic Culture Initiation - % Megagametophytes Extruding,"[1]; total, 10 ppm ABA/No Br",9.2%
same,% Megagametophytes Extruding,"[1]; total, 20 ppm ABA/No Br",40.9%
same,Embryogenic Culture Initiation - % Megagametophytes Extruding,"[1]; total, 20 ppm ABA/No Br",10.0%
same,% Megagametophytes Extruding,"[2]; Total, 1.0 atm",38.4%
same,% Megagametophytes Initiating,"[2]; Total, 1.0 atm",21.5%
same,% Megagametophytes Extruding,"[2]; Total, + Pressure 1.5 atm",46.7%
same,% Megagametophytes Initiating,"[2]; Total, + Pressure 1.5 atm",24.4%
same,% Megagametophytes Extruding,"[2]; genotype 7-100, 1.0 atm",10.0 (5.8) %
same,% Megagametophytes Initiating,"[2]; genotype 7-100, 1.0 atm",3.3 (3.3) %
same,% Megagametophytes Extruding,[2]; [17],23.3 (13.3) %
same,% Megagametophytes Initiating,[2]; [17],3.3 (3.3) %
same,% Megagametophytes Extruding,"[2]; genotype 11-1095, 1.0 atm",50.0 (0.0) %
same,% Megagametophytes Initiating,"[2]; genotype 11-1095, 1.0 atm",23.3 (6.7) %
same,% Megagametophytes Extruding,[2]; [18],50.0 (5.8) %
same,% Megagametophytes Initiating,[2]; [18],20.0 (5.8) %
same,% Megagametophytes Extruding,"[2]; genotype 21-6, 1.0 atm",55.2 (8.7) %
same,% Megagametophytes Initiating,"[2]; genotype 21-6, 1.0 atm",37.8 (11.8) %
same,% Megagametophytes Extruding,[2]; [19],66.7 (8.8) %
same,% Megagametophytes Initiating,[2]; [19],50.0 (11.5) %
same,% Initiating (std. error),[3],47.4 (5.5) %
same,% of Megagametophytes Initiating - Mean,"[4]; genotype T0232l, +1 ppm ABA in media #121",21.1%
same,% of Megagametophytes Initiating - Mean,"[4]; genotype T0232l, ABA pre-soak (5 ppm, 30 minutes)",27.6%
same,% of Megagametophytes Initiating - Mean,"[4]; genotype T0235l, +1 ppm ABA in media #121",10.5%
same,% of Megagametophytes Initiating - Mean,"[4]; genotype T0235l, ABA pre-soak (5 ppm, 30 minutes)",25.0%
same,% of Megagametophytes Initiating - Mean,"[4]; genotype T0293l, +1 ppm ABA in media #121",34.6%
same,% of Megagametophytes Initiating - Mean,"[4]; genotype T0293l, ABA pre-soak (5 ppm, 30 minutes)",26.9%
same,% of Megagametophytes Initiating - Mean,"[4]; genotype T0525l, +1 ppm ABA in media #121",10.0%
same,% of Megagametophytes Initiating - Mean,"[4]; genotype T0525l, ABA pre-soak (5 ppm, 30 minutes)",20.0%
same,% of Megagametophytes Initiating - Mean,"[4]; total, +1 ppm ABA in media #121",19.1%
same,% of Megagametophytes Initiating - Mean,"[4]; total, ABA pre-soak (5 ppm, 30 minutes)",24.6%
